ChEMBL document CHEMBL5226288, “A perspective on medicinal chemistry approaches towards adenomatous polyposis coli and Wnt signal based colorectal cancer inhibitors” (Eur J Med Chem, 2021)
pIC50, pKi: −log10 of the molar value. Values belong to the compound of their own block, whether it stands above or below them. Non-standard residues stand in square brackets, D forms with d. Residues, ends and D or L forms follow the SMILES beside them. *: point of attachment. Ala(cPent) = N[C@@H](CC1CCCC1)C(=O)O; Cbz = O=C(OCc1ccccc1)*

Columns and labels:
DLD-1 [1] = assay: Anticancer activity against human DLD-1 cells assessed as reduction in cell viability incubated for 24 hrs by Cell Titer-Glo assay; assay type: functional, cell-based; details: DLD-1, 24 h
HCT-116 [2] = assay: Anticancer activity against human HCT-116 cells assessed as reduction in cell viability incubated for 24 hrs by Cell Titer-Glo assay; assay type: functional, cell-based; details: HCT-116, 24 h
[3] = target: T1, 7-dehydrocholesterol reductase (Homo sapiens, UniProt Q9UBM7); assay: Inhibition of DHCR7 (unknown origin)
T1 sequence (Q9UBM7 whole entry): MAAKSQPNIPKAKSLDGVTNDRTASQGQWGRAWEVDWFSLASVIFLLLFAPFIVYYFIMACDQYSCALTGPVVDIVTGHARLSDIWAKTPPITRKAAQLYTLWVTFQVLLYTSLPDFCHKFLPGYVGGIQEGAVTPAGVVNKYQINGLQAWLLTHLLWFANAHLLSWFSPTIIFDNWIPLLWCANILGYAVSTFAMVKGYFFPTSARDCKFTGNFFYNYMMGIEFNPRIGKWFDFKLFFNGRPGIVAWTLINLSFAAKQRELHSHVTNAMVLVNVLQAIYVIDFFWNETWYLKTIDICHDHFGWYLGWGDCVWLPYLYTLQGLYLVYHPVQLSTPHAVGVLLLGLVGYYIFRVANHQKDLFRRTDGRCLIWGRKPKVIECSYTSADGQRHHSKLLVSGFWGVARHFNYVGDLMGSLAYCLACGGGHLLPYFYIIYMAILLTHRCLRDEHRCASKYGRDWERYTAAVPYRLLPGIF

[4] = target: 3-beta-hydroxysteroid-Delta(8),Delta(7)-isomerase (Homo sapiens, UniProt Q15125); assay: Inhibition of EBP (unknown origin)
DNA polymerase beta = DNA polymerase beta (Homo sapiens, UniProt P06746); assay: Inhibition of human DNA polymerase beta using 32P-labeled 63-mer F-DNA substrate preincubated for 5 mins followed by substrate addition and measured after 45 mins by autoradiography
[5] = Inhibition of Wnt/beta-catenin signaling pathway in mouse L Wnt-3A cells harbouring STF-reporter gene assessed as assessed as reduction in luciferase activity incubated for 24 hrs by luciferase reporter assay; assay type: cell-based
SW480 [6] = assay: Anticancer activity against human SW480 cells assessed as reduction in cell viability; assay type: functional, cell-based
HCT-116 [7] = assay: Anticancer activity against human HCT-116 cells assessed as reduction in cell viability; assay type: functional, cell-based
HCT-116 [8] = assay: Antiproliferative activity against human HCT-116 cells assessed as reduction in cell proliferation incubated for 72 hrs by MTS assay; assay type: functional, cell-based; details: HCT-116, 72 h
[9] = target: T2, Adenomatous polyposis coli protein (Homo sapiens, UniProt P25054); assay: Inhibition of APC (303 to 739 residues) (unknown origin) assessed as inhibition constant preincubated for 60 mins followed by substrate addition and measured after 60 mins using Ac-GGGGEQLAINELISDGK-FITC as substrate by fluorescence polarization assay
[10] = target: T2, Adenomatous polyposis coli protein; assay: Inhibition of APC (303 to 739 residues) (unknown origin) preincubated for 60 mins followed by substrate addition and measured after 60 mins using Ac-GGGGEQLAINELISDGK-FITC as substrate by fluorescence polarization assay
DLD-1 [11] = assay: Anticancer activity against human DLD-1 cells assessed as cell growth inhibition by SRB assay; assay type: functional, cell-based
SW480 [12] = assay: Anticancer activity against human SW480 cells assessed as cell growth inhibition by SRB assay; assay type: functional, cell-based

3-beta-hydroxysteroid-Delta(8),Delta(7)-isomerase, sequence (Q15125 whole entry): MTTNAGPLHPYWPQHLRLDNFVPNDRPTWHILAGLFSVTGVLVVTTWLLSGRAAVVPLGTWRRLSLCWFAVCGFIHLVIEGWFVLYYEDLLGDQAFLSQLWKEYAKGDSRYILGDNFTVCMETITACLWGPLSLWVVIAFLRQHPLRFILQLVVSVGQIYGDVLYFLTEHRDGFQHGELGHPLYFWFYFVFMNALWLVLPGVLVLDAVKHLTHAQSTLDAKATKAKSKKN
T2 sequence (P25054 whole entry, the tested form may be a part): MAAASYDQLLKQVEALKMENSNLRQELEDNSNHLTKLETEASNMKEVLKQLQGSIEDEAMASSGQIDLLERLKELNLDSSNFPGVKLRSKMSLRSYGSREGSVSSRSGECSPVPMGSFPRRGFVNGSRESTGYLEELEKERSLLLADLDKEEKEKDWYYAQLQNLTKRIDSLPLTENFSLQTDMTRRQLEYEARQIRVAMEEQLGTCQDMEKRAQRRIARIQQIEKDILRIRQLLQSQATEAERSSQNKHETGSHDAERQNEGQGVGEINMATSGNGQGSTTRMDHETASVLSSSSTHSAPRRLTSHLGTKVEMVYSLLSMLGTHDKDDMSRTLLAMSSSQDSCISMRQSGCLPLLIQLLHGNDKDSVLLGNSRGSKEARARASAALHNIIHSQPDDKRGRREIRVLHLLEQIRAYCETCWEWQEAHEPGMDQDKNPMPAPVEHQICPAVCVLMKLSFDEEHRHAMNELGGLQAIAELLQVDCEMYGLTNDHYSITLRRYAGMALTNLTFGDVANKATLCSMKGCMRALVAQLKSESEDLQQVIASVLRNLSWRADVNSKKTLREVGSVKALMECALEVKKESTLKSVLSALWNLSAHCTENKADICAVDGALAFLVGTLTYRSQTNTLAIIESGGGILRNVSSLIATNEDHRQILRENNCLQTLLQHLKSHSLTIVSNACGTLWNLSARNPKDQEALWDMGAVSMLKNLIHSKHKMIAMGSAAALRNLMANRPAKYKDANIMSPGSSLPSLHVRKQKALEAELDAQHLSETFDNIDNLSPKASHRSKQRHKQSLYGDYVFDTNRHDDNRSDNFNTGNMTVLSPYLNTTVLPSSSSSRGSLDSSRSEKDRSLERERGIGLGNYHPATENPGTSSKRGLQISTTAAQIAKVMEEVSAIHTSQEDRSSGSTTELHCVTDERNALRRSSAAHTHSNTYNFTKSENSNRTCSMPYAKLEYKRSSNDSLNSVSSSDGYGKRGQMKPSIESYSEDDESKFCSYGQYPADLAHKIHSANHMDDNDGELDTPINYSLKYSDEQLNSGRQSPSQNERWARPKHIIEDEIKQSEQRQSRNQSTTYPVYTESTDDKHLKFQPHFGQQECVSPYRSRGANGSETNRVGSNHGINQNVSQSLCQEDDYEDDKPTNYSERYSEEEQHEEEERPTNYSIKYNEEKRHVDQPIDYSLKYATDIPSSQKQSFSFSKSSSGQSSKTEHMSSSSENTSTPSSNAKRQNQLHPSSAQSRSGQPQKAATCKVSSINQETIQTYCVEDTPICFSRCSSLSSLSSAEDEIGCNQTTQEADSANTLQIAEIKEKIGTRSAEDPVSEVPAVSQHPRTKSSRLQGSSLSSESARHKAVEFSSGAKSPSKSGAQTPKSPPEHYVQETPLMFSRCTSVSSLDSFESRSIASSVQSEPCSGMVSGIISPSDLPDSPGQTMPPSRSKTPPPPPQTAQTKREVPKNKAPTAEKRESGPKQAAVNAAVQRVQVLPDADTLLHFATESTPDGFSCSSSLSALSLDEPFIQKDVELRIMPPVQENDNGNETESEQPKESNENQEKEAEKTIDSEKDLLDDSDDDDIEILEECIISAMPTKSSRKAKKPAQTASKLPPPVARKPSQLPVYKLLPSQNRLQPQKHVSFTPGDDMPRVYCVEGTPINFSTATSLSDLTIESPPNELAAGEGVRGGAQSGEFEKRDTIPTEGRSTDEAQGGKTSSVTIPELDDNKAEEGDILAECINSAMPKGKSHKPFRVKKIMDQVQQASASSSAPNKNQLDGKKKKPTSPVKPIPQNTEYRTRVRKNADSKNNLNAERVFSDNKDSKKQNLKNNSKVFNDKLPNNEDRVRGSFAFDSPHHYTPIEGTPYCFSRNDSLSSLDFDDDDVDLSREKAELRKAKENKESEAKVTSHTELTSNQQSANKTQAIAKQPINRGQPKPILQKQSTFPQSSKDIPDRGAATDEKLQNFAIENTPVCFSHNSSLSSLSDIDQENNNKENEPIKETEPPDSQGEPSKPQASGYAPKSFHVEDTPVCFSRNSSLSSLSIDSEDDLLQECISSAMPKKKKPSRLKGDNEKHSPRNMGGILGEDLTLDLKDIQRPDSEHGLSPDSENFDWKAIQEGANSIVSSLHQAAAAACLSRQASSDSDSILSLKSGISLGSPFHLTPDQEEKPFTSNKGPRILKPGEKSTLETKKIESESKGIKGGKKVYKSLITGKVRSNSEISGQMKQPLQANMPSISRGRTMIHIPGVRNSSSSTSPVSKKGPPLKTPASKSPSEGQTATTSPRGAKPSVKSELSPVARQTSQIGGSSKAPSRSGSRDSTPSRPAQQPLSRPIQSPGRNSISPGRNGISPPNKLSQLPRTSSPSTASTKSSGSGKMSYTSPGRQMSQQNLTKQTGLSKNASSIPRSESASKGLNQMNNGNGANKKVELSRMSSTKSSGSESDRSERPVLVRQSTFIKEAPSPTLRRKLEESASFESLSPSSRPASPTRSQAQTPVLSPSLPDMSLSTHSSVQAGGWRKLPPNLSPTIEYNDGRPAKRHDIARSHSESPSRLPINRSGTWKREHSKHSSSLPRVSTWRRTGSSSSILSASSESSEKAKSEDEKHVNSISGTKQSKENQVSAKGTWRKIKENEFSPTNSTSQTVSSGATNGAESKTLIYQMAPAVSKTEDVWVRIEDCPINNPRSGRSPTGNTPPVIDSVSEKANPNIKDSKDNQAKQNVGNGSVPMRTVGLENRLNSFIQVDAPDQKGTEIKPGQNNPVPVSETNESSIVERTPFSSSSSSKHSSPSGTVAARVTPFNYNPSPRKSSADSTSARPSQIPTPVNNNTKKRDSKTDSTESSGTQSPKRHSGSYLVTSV

- pIC50 (DLD-1 [1]): 5.87
- pIC50 (HCT-116 [2]): 5.94
Compound: CC(=O)Nc1cccc(-n2c(=O)n(C3CC3)c(=O)c3c(Nc4ccc(I)cc4F)n(C)c(=O)c(C)c32)c1 [TRAMETINIB]

- pIC50 [3]: 5.97
- pIC50 [4]: 8.53
Compound: Cc1cc(C)c(S(=O)(=O)N2CCC(NCc3ccccc3)CC2)c(C)c1

- pIC50 (DNA polymerase beta): > 4.30
Compound: COc1cccc(Nc2nc(NS(=O)(=O)c3cc(C)c(C)cc3C)n[nH]2)c1

- pIC50 [3]: 7.52
- pIC50 [4]: > 6.00
Compound: CC1CCN(C2CCN(S(=O)(=O)c3ccc(OC(C)C)cc3)CC2)CC1

- pIC50 [5]: 7.40
Compound: COc1ccccc1-n1nc(C(=O)NCC(=O)Nc2nc3ccc(C)cc3s2)c2c(c1=O)SCC2

- pIC50 [5]: 7.24
Compound: COc1ccc(-n2nc(C(=O)NCC(=O)Nc3nc4ccc(OC)cc4s3)c3ccccc3c2=O)cc1

- pIC50 (SW480 [6]): 7.82
- pIC50 (HCT-116 [7]): 8.10
Compound: CN1CCN(S(=O)(=O)c2ccc(N3CCCC3=O)cc2)c2ccccc21

- pIC50 (HCT-116 [7]): 6.24
Compound: COC(=O)c1cccc(NS(=O)(=O)c2ccc(C)cc2)c1

Compound: Cn1ncnc2c(=O)n(C)c(=O)nc1-2
- pIC50 (HCT-116 [8]): 5.54

- pIC50 (HCT-116 [7]): > 4.30
Compound: NC1=NC(=O)N(C2CC(O)C(COP(=O)(O)O)O2)C(I)C1 (configuration not stated)

- pIC50 (HCT-116 [7]): > 4.30
Compound: Cn1nnc2c(C(N)=O)ncn2c1=O [TEMOZOLOMIDE]

Compound: N#CC(=C(/N)Sc1ccccc1N)/C(C#N)=C(\N)Sc1ccccc1N
- pIC50 (DLD-1 [1]): 5.94
- pIC50 (HCT-116 [2]): 6.03

- pIC50 [3]: 10.00
- pIC50 [4]: 7.31
Compound: Cc1ccc(-c2ccc(S(=O)(=O)N3CCC(N4CCC(C)CC4)CC3)cc2)cc1

- pKi [9]: 5.42
- pIC50 [10]: 4.92
Compound: Ac-GGEALAD-OH

- pIC50 (SW480 [6]): 6.16
Compound: O=C1Nc2ccccc2C12OCC1(CO2)COC2(OC1)C(=O)Nc1ccccc12 (configuration not stated)

Compound: COc1c(C[C@@H](C)OC(=O)c2c(C)cc(O)cc2O)c2c3c(C[C@@H](C)OC(=O)c4c(C)cc(O)cc4O)c(OC)c(=O)c4c(O)cc(OC)c(c5c(OC)cc(O)c(c1=O)c52)c43
- pIC50 (HCT-116 [8]): 5.44

- pIC50 (SW480 [6]): 4.97
- pIC50 (HCT-116 [7]): 4.54
Compound: CCOC(=O)C[C@H](NC(=O)[C@H](Cc1c[nH]c2ccccc12)NC(=O)Cc1cc2cc(C)ccc2[nH]1)C(=O)N[C@@H](CCC(=O)O)C(=O)OC

- pIC50 (DLD-1 [1]): 5.90
- pIC50 (HCT-116 [2]): 6.02
Compound: Cn1cnc2c(F)c(Nc3ccc(Br)cc3Cl)c(C(=O)NOCCO)cc21 [SELUMETINIB]

- pIC50 [3]: 5.86
- pIC50 [4]: 8.03
Compound: Cc1cc(C)c(S(=O)(=O)N2CCC(N3CCCCCC3)CC2)c(C)c1

- pIC50 [5]: 7.57
Compound: Cc1ccc2nc(NC(=O)CNC(=O)c3nn(-c4ccccc4)c(=O)c4c3CCS4)sc2c1

- pKi [9]: 6.92
- pIC50 [10]: 5.96
Compound: CC(C)C[C@H](NC(=O)[C@H](C)NC(=O)[C@H](CCC(=O)O)NC(=O)CNC(=O)[C@H](C)NC(=O)OCc1ccccc1)C(=O)N[C@@H](Cc1ccc(O)cc1)C(=O)N[C@@H](CCC(=O)O)C(=O)O (Cbz-AGEALYE-OH)

- pKi [9]: 4.35
- pIC50 [10]: 3.87
Compound: H-GGEQLAI-OH

- pIC50 (DNA polymerase beta): > 4.30
Compound: Cc1cc(C)c(S(=O)(=O)Nc2n[nH]c(Nc3ccc4ccccc4c3)n2)cc1C

- pIC50 (DNA polymerase beta): > 4.30
Compound: Cc1cc(SC(=O)O)c(S(=O)(=O)Nc2n[nH]c(Nc3ccccc3)n2)cc1C

- pIC50 [5]: 7.60
Compound: Cc1ccc(-n2nc(C(=O)NCC(=O)Nc3nc4ccc(C)cc4s3)c3c(c2=O)SCC3)cc1

- pIC50 [3]: 5.69
- pIC50 [4]: 6.73
Compound: Cc1cc(C)c(S(=O)(=O)N2CCC(N3CN4CCC3CC4)CC2)c(C)c1

- pIC50 [3]: 4.30
- pIC50 [4]: 6.52
Compound: Cc1cc(C)c(S(=O)(=O)N2CCC([N+]3(C)CCCC3)CC2)c(C)c1

- pIC50 (DLD-1 [11]): 6.05
- pIC50 (SW480 [12]): 5.77
Compound: CC/C(=N/NC(=O)c1ccccc1)c1cc(C)cc(C)c1O

- pIC50 (DNA polymerase beta): > 4.30
Compound: Cc1cc(C)c(S(=O)(=O)Nc2n[nH]c(Nc3ccccc3)n2)cc1C

- pIC50 (DLD-1 [11]): 6.30
- pIC50 (SW480 [12]): 6.05
Compound: CC/C(=N/NC(=O)c1ccnc(NCCN2CCOCC2)c1)c1ccc(C)cc1O

- pKi [9]: 5.51
- pIC50 [10]: 4.99
Compound: Ac-GGEALAW-OH

- pKi [9]: 5.62
- pIC50 [10]: 5.10
Compound: Ac-AGEALAD-OH

Compound: COc1c(C[C@@H](C)OC(=O)Oc2ccc(O)cc2)c2c3c(C[C@@H](C)OC(=O)c4ccccc4)c(OC)c(=O)c4c(O)cc(OC)c(c5c(OC)cc(O)c(c1=O)c52)c43 [CALPHOSTIN C]
- pIC50 (HCT-116 [8]): 5.54

- pIC50 (HCT-116 [8]): 6.11
Compound: CCCC(=O)c1cc2c(c(O)c1C)C(=O)C(=O)c1c(O)cccc1-2

- pKi [9]: 7.82
- pIC50 [10]: 6.24
Compound: C[C@H](NC(=O)OCc1ccccc1)C(=O)NCC(=O)N[C@@H](CCC(=O)O)C(=O)N[C@@H](C)C(=O)N[C@@H](CC1CCCC1)C(=O)N[C@@H](Cc1ccc(O)cc1)C(=O)N[C@@H](CCC(=O)O)C(=O)O (Cbz-AGEA[Ala(cPent)]YE-OH)

- pIC50 (DLD-1 [11]): 6.00
- pIC50 (SW480 [12]): 6.22
Compound: Cc1cc(C(=O)N/N=C\c2ccccc2O)c2cc(Br)ccc2n1

Compound: COC(=O)c1c(C)cc2c(c1O)[C@]1(O)C(=O)c3cc4c(c(O)c3C(=O)[C@]1(OC)[C@H](O)C2)C(=O)C=C(N[C@H]1O[C@@H](C)[C@H](OC)[C@@H](O)[C@H]1OC)C4=O
- pIC50 (HCT-116 [8]): > 6.82
